Laboratory results reported in patent publication US20070190188A1, “Controlling Toxicity of Aminoquinoline Compounds” (The University of Mississippi, priority 2005, published 2007).

Legend:
Format in all cases: cell-based
human erythrocytes = assay: In vitro methemoglobin formation, human erythrocytes, control without microsomes
Procedure: (§1) In one aspect of the present invention, an in vitro assay is developed for evaluation of biotransformation reactions leading to generation of methemoglobinemic metabolites of 8-aminoquinolines. This method uses simultaneous incubation of a test compound with the hepatic microsomes or Baculosomes® (microsomes prepared from insect cells infected with recombinant baculovirus containing a cDNA insert for a specific human P450 isozyme and NADPH-P450 reductase) and human erythrocytes followed by determination of methemoglobin formation. This allows the unstable metabolites generated in situ to react with the human erythrocytes.

[1] = system: pooled human liver microsomes; assay: In vitro formation of methemoglobinemic metabolites with pooled human liver microsomes and human erythrocytes
Procedure: as §1

Mouse Liver Microsomes = assay: In vitro formation of methemoglobinemic metabolites with mouse liver microsomes and human erythrocytes
Procedure: as §1

CYP 1A2 = molecular target: T1, CYP 1A2 (Homo sapiens, UniProt P05177); assay: Methemoglobinemic metabolite formation with Baculosomes, CYP 1A2; conditions: mean ± S.D. of four
T1 construct: purchased; host or cells: insect cells infected with recombinant baculovirus
T1 sequence (P05177 2-516 limits assumed): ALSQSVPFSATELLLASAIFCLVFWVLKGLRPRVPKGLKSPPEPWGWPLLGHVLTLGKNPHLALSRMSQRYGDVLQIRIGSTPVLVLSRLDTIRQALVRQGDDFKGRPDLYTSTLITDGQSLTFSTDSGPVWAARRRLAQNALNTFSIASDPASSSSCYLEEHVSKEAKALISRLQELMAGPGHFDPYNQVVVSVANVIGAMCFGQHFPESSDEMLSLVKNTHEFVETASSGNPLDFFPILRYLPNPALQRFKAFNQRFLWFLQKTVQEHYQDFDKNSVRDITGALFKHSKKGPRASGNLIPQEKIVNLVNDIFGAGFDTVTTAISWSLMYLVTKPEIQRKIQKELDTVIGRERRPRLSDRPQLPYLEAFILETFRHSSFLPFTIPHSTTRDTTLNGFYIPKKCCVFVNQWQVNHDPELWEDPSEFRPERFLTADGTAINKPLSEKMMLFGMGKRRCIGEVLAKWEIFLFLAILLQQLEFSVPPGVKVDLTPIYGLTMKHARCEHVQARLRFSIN
Procedure: (§2) This method uses simultaneous incubation of a test compound with the hepatic microsomes or Baculosomes® (microsomes prepared from insect cells infected with recombinant baculovirus containing a cDNA insert for a specific human P450 isozyme and NADPH-P450 reductase) and human erythrocytes followed by determination of methemoglobin formation. This allows the unstable metabolites generated in situ to react with the human erythrocytes.

CYP 2D6 = molecular target: T2, CYP 2D6 (Homo sapiens, UniProt P10635); assay: Methemoglobinemic metabolite formation with Baculosomes, CYP 2D6; conditions: mean ± S.D. of four
T2 construct: purchased; host or cells: insect cells infected with recombinant baculovirus
Procedure: as §2

CPY 2B6 = molecular target: T3, CPY 2B6 (Homo sapiens, UniProt P20813); assay: Methemoglobinemic metabolite formation with Baculosomes, CYP 2B6; conditions: mean ± S.D. of four
T3 construct: purchased; host or cells: insect cells infected with recombinant baculovirus
T3 sequence (P20813 1-491): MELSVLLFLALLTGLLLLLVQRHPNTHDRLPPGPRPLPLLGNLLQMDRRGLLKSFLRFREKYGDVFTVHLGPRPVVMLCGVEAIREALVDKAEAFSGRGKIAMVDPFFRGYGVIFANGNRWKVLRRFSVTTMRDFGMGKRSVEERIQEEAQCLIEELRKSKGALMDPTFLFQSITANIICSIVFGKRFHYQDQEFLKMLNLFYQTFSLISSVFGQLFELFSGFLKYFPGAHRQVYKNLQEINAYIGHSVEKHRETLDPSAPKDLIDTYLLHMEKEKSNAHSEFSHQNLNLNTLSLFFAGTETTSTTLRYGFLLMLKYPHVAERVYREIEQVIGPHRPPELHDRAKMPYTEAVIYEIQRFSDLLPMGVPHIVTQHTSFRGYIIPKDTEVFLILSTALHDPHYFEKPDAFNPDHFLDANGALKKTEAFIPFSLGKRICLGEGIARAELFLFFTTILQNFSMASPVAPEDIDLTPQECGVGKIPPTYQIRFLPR
Procedure: as §2

CYP 2A6 = molecular target: T4, CYP 2A6 (Homo sapiens, UniProt P11509); assay: Methemoglobinemic metabolite formation with Baculosomes, CYP 2A6; conditions: mean ± S.D. of four
T4 construct: purchased; host or cells: insect cells infected with recombinant baculovirus
T4 sequence (P11509 1-494): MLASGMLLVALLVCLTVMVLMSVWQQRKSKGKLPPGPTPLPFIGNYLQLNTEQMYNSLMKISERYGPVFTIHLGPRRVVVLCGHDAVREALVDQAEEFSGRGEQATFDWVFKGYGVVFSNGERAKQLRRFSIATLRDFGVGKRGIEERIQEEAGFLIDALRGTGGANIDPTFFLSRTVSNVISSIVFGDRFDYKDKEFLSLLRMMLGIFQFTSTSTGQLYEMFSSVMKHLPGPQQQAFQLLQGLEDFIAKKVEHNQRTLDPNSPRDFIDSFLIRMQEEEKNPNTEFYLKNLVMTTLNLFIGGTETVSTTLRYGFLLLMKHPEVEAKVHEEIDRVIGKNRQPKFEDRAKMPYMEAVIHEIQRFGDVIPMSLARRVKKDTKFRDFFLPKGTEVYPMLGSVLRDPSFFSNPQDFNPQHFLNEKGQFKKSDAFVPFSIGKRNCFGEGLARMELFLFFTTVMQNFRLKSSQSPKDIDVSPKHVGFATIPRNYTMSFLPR
Procedure: as §2

CYP 2C8 = molecular target: T5, CYP 2C8 (Homo sapiens, UniProt P10632); assay: Methemoglobinemic metabolite formation with Baculosomes, CYP 2C8; conditions: mean ± S.D. of four
T5 construct: purchased; host or cells: insect cells infected with recombinant baculovirus
T5 sequence (P10632 1-490): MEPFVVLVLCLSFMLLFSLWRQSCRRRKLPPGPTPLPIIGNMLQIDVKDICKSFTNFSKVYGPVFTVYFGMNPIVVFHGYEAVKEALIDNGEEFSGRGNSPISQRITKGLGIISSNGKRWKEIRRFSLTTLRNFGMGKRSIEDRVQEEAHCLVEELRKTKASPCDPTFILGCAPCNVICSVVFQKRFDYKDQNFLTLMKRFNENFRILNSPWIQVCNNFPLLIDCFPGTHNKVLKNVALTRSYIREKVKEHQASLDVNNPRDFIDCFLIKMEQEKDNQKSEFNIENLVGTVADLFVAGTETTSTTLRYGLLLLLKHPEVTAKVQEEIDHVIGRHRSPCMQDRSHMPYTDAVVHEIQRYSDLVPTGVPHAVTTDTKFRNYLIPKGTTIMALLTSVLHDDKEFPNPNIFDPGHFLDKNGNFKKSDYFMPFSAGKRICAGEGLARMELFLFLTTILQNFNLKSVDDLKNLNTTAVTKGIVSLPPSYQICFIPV
Procedure: as §1

CYP 2C19 = molecular target: T6, CYP 2C19 (Homo sapiens, UniProt P33261); assay: Methemoglobinemic metabolite formation with Baculosomes, CYP 2C19; conditions: mean ± S.D. of four
T6 construct: purchased; host or cells: insect cells infected with recombinant baculovirus
Procedure: as §2

CYP 2C9 = molecular target: T7, CYP 2C9 (Homo sapiens, UniProt P11712); assay: Methemoglobinemic metabolite formation with Baculosomes, CYP 2C9; conditions: mean ± S.D. of four
T7 construct: purchased; host or cells: insect cells infected with recombinant baculovirus
Procedure: as §2

[2] = drug 100 μM, microsomes equivalent to 25 pmoles cytochrome P450, Mean ± S.D. of four

T7 sequence (P11712 whole entry): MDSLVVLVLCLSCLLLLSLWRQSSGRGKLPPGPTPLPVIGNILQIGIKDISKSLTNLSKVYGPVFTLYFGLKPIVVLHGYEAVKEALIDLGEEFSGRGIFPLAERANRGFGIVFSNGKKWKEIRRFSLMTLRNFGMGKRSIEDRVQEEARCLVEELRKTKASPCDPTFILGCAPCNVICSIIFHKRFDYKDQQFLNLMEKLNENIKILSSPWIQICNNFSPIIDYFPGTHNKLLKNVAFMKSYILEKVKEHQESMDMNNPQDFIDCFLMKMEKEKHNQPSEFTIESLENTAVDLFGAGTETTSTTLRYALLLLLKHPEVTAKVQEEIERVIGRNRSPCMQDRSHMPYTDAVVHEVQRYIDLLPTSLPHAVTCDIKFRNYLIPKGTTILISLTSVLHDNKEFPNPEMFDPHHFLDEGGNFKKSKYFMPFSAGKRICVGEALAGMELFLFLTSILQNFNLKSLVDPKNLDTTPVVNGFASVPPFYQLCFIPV
T2 sequence (P10635 whole entry): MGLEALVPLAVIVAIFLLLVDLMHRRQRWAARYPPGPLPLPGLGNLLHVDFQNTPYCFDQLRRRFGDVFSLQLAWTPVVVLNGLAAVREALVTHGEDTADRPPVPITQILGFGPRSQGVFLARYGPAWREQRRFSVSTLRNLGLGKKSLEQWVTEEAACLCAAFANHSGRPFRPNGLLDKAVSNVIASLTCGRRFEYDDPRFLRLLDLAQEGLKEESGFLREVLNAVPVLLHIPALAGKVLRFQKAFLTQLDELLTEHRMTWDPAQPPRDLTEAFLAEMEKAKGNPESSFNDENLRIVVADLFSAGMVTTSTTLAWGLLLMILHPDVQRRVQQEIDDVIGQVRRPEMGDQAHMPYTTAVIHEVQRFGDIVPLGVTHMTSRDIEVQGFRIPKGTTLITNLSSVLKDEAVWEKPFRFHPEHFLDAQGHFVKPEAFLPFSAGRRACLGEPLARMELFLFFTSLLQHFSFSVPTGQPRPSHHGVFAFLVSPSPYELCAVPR
T6 sequence (P33261 whole entry): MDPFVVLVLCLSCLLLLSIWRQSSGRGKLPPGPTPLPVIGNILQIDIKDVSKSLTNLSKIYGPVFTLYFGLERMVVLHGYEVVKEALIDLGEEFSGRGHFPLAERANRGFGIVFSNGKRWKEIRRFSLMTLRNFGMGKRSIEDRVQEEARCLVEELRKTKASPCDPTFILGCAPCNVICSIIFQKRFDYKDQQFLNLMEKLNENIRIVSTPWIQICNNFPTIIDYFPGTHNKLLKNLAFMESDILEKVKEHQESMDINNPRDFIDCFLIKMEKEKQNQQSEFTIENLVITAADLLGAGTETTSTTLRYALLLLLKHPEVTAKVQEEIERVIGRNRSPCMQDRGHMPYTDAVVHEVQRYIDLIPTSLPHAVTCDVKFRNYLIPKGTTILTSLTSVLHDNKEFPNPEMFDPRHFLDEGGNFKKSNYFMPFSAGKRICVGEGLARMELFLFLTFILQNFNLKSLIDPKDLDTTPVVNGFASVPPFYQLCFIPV

## COc1cc(N[C@H](C)CCCN)c2nccc(C)c2c1Oc1ccc(Cl)c(Cl)c1 [NPC1161B]
Human erythrocytes; no Baculosomes, mean ± S.D. of four
  % methemoglobin formed, Supersomes None: 0.980 ± 0.493%
Human erythrocytes; no microsomes, drug 100 μM, Mean ± S.D. of four observations
  % methemoglobin formation, Control: 0.980 ± 0.439%
[1]; FIGS. 1 and 2, Table 1
  methemoglobin toxicity compared with primaquine and NPC 1161A: significantly reduced methemoglobin toxicity
[1]; [2]
  % methemoglobin formation, Pooled Human liver Microsomes: 7.455 ± 0.879%
[1]; pooled human Liver Microsomes, 8-aminoquinoline with Azithromycin
  formation of methemoglobenemic metabolites, Azithromycin: 7.565 ± 1.276
[1]; pooled human Liver Microsomes, 8-aminoquinoline with Erythromycin
  formation of methemoglobenemic metabolites, Erythromycin: 0
[1]; pooled human Liver Microsomes, no macrolide
  formation of methemoglobenemic metabolites, Microsomes: 7.697 ± 1.392
[1]; pooled human liver microsomes, FIG. 7 and 8
  methemoglobin toxicity with macrolide antibiotics troleandomycin and erythromycin: almost completely abolished
Mouse Liver Microsomes; Mouse Liver Microsomes, 8-aminoquinoline with Azithromycin
  formation of methemoglobenemic metabolites, Azithromycin: 9.993 ± 1.306
Mouse Liver Microsomes; Mouse Liver Microsomes, 8-aminoquinoline with Erythromycin
  formation of methemoglobenemic metabolites, Erythromycin: 3.133 ± 0.963
Mouse Liver Microsomes; Mouse Liver Microsomes, no macrolide
  formation of methemoglobenemic metabolites, Microsomes: 11.24 ± 3.612
Mouse Liver Microsomes; [2]
  % methemoglobin formation, Mouse Liver Microsomes: 11.240 ± 3.612%
CYP 1A2
  % methemoglobin formed, CYP 1A2: 0.00%
CYP 2D6
  % methemoglobin formed, CYP 2D6: 5.380 ± 1.402%
CPY 2B6
  % methemoglobin formed, CPY 2B6: 2.855 ± 0.419%
CYP 2A6
  % methemoglobin formed, CYP 2A6: 2.135 ± 0.530%
CYP 2C8
  % methemoglobin formed, CYP 2C8: 1.353 ± 0.791%
CYP 2C19
  % methemoglobin formed, CYP 2C19: 3.870 ± 0.577%
CYP 2C9
  % methemoglobin formed, CYP 2C9: 3.690 ± 1.660%
